From ChEMBL document CHEMBL1201862, “PubChem BioAssay data set” (2004)
Activity calls are given as the source filed them.

How the values were obtained:
Caspase-3 [1] = molecular target: T1, Caspase-3 (Homo sapiens, UniProt P42574); assay: human caspase-3 protease activity blockade – biochemical, fluorescence, cherry-picked samples, selectivity assay for caspase-6 allosteric inhibitor project, dose response (AID 743291)
T1 sequence (P42574 whole entry): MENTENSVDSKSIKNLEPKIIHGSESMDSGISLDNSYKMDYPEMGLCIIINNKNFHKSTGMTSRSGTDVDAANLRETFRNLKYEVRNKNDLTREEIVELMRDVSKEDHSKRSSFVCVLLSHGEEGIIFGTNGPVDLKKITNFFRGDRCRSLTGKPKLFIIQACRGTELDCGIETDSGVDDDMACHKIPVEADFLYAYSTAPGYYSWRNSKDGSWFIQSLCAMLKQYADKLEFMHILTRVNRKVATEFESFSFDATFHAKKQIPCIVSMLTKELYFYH

H9c2 = assay: cells; format: functional, cell-based; conditions: Rattus norvegicus, H9c2, Myocardium;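 note: confirmatory concentration-response retest of ultra-high-throughput screening hits for modulation of myocardial damage; cell death induced by hydrogen peroxide oxidative stress; compound pretreatment for 60 min then peroxide exposure for 2 h; potency is for protecting the cells against peroxide damage rather than for killing them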
Caspase-6 = molecular target: T2, Caspase-6 (Homo sapiens, UniProt P55212); assay: inhibition of CASP6 peptide cleavage – biochemical, VEID-R110 fluorescence, cherry-pick, dose response (AID 720632)
T2 sequence (P55212 whole entry): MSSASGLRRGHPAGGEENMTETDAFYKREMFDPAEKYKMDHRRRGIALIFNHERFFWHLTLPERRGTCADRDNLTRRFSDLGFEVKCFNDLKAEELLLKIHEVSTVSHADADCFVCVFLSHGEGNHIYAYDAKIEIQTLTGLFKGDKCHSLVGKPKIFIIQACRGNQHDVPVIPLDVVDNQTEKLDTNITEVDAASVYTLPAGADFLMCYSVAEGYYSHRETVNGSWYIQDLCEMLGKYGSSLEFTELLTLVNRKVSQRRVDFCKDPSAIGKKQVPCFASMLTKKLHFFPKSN

[2] = molecular target: Mitochondrial peptide methionine sulfoxide reductase (Bos taurus, UniProt P54149); assay: Absorbance-based biochemical high throughput dose response assay for activators of Methionine sulfoxide reductase A (MsrA).; format: functional
Mitochondrial peptide methionine sulfoxide reductase, sequence (P54149 whole entry): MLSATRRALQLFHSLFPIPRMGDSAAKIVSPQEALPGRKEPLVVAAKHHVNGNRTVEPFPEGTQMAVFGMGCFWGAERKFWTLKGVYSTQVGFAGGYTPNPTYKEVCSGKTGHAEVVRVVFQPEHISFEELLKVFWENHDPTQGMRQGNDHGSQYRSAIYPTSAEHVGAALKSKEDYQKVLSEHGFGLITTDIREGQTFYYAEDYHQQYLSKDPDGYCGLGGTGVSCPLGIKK

Caspase-9 = Caspase-9 (Homo sapiens, UniProt P55211); assay: inhibitors of purified CASP9 protease – biochemical, fluorescence, plate reader, cherry-picked samples, selectivity assay for caspase-6 inhibitor project, dose response (AID 743293)
Caspase-9, sequence (P55211 1-315 limits assumed): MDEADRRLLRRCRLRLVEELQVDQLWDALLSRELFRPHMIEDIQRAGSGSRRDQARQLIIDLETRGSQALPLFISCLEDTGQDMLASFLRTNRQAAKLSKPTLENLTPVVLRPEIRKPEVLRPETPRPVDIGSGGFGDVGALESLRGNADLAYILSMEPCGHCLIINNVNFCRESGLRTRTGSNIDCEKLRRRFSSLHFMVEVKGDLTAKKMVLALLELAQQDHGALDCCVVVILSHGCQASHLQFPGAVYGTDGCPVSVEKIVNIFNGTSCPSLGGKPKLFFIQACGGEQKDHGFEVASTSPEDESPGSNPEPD
Caspase-9, sequence (P55211 331-416 limits assumed): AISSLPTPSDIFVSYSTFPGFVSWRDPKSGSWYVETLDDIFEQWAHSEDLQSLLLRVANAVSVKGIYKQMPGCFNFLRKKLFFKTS

Caspase-7 = Caspase-7 (Homo sapiens, UniProt P55210); assay: caspase-7 enzyme inhibition, selectivity check – biochemical, DEVD-R110 fluorescence, cherry-pick, selectivity assay for caspase-6 inhibitor project, dose response (AID 743295); format: functional
Caspase-7, sequence (P55210 24-198 limits assumed): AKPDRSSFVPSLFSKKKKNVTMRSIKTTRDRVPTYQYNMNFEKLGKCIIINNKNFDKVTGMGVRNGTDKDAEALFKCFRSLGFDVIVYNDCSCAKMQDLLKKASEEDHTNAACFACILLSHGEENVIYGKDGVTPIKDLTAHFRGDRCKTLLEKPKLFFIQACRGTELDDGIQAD
Caspase-7, sequence (P55210 207-303 limits assumed): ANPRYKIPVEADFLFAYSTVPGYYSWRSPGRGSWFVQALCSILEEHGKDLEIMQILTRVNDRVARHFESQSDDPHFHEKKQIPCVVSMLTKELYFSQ

[3] = molecular target: Tyrosyl-DNA phosphodiesterase 2 (Homo sapiens, UniProt O95551); assay: potency against TDP2 phosphodiesterase activity – biochemical, epi absorbance, IC50, dose response (AID 743297)
Tyrosyl-DNA phosphodiesterase 2, sequence (O95551 whole entry): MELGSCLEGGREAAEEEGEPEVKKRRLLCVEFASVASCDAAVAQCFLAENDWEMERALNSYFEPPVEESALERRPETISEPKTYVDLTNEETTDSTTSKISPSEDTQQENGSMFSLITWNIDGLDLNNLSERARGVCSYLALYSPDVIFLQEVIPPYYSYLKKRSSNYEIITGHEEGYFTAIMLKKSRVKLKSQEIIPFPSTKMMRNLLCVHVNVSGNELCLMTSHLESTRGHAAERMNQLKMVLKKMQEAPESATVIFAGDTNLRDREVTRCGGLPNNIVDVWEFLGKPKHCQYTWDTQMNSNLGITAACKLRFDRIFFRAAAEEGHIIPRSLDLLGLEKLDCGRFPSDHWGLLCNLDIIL

[4] = molecular target: T3, Sentrin-specific protease 6 (Homo sapiens, UniProt Q9GZR1); format: functional;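 note: Luminescence-based dose-response confirmatory assay of SENP6 inhibition, following up an ultra-high-throughput screen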
T3 sequence (Q9GZR1 whole entry): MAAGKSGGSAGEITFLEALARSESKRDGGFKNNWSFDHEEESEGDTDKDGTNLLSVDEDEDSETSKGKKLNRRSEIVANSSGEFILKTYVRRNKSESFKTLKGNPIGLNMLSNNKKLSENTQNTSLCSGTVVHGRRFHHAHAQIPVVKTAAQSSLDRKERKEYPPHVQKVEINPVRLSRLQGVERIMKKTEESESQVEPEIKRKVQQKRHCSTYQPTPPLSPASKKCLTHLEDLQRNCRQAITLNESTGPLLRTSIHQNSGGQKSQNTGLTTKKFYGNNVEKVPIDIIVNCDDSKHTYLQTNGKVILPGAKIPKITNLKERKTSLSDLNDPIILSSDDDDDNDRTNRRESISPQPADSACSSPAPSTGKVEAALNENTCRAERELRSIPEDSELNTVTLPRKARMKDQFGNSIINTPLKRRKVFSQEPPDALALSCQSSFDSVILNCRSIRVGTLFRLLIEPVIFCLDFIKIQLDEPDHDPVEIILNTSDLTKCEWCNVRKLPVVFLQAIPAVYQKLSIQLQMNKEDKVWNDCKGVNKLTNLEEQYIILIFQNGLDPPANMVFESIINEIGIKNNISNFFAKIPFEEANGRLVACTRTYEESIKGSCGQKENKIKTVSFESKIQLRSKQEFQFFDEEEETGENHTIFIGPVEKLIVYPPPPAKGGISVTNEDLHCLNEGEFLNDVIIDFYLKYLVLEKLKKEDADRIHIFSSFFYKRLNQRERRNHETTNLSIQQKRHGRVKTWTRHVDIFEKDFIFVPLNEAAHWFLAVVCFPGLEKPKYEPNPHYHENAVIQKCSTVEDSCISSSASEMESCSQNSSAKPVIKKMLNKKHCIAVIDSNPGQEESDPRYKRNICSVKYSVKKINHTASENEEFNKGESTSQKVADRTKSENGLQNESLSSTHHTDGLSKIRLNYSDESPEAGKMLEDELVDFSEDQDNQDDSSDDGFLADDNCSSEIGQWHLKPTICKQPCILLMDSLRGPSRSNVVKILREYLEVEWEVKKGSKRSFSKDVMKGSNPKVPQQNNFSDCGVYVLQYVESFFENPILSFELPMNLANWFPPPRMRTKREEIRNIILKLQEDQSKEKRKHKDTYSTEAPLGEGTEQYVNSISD

[5] = molecular target: T4, Sentrin-specific protease 8 (Homo sapiens, UniProt Q96LD8); format: functional;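 note: luminescence read-out of SENP8 inhibition, dose-response confirmation following an ultra-high-throughput screen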
T4 sequence (Q96LD8 whole entry): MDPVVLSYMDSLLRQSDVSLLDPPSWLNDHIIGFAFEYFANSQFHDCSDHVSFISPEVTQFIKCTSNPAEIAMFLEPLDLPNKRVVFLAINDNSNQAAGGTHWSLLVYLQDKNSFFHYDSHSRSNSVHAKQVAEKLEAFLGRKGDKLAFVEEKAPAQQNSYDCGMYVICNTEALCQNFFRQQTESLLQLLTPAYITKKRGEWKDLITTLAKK

[6] = molecular target: T5, Sentrin-specific protease 7 (Homo sapiens, UniProt Q9BQF6); format: functional;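 note: Luminescence-based dose-response confirmation of ultra-high-throughput screening hits, measuring inhibition of SENP7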
T5 sequence (Q9BQF6 whole entry): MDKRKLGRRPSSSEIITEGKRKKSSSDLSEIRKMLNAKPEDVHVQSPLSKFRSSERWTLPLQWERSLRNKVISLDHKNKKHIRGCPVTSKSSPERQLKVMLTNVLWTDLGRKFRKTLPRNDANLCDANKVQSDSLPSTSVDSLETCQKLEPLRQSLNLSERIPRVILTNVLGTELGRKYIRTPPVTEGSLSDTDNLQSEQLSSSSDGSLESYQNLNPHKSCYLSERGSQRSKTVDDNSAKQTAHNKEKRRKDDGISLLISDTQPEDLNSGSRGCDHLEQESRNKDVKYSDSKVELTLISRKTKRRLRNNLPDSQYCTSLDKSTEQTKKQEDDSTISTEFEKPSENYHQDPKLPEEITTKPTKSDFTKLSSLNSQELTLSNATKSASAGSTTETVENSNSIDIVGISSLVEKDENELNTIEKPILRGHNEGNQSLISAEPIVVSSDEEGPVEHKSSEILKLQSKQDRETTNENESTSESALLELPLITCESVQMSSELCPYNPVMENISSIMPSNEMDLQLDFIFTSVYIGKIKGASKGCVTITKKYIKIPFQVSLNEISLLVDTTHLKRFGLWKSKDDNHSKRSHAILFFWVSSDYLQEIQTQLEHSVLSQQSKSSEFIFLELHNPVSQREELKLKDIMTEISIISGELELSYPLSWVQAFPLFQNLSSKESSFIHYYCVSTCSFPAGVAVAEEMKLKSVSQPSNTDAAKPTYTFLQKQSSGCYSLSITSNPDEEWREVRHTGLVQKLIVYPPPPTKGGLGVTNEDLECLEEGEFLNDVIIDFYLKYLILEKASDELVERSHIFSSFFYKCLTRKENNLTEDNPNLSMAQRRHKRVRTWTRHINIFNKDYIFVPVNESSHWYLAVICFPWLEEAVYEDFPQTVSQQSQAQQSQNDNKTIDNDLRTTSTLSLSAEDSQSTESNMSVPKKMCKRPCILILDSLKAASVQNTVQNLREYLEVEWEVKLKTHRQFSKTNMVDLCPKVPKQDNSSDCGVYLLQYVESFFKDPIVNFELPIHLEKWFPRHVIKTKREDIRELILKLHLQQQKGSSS

Caspase-3 [7] = molecular target: T1, Caspase-3; format: functional
Caspase-8 = Caspase-8 (Homo sapiens, UniProt Q14790); assay: inhibitors of purified CASP8 protease – biochemical, Z-IETD-R110 fluorescence, cherry-picked samples, selectivity assay for caspase-6 inhibitor project, dose response (AID 743294)
Caspase-8, sequence (Q14790 217-374 limits assumed): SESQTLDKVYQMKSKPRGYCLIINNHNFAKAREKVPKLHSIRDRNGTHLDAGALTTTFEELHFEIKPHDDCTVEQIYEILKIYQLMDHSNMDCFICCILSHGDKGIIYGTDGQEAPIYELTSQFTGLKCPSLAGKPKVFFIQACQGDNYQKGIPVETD
Caspase-8, sequence (Q14790 385-479 limits assumed): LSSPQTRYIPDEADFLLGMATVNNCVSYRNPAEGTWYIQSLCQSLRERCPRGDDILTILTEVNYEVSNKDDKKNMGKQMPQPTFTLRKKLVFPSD

[8] = PAX5 cellular inhibition readout – cell-based, plate reader, dry powder samples, selectivity assay for PAX8 inhibitor project, dose response (AID 743047); format: functional;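 note: HEK293 cells carrying a Pax5 driven CD19 promoter luciferase reporter; potency of inhibitors that lower reporter luminescence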
[9] = OV-90 cell viability loss – plate reader, dry powder, SA8, PAX8 inhibitor project, dose response (AID 743149); format: functional, cell-based
[10] = PAX8-dependent cell viability loss – plate reader, dry powder, dose response (AID 743049); format: functional, cell-based
[11] = COV434 cell viability loss – plate reader, dry powder, SA7, cytotoxicity control for PAX8 inhibitor project, dose response (AID 743145); format: functional, cell-based
[12] = inhibitors acting on PAX2 in cells – cell-based, plate reader, dry powder samples, selectivity assay for PAX8 inhibitor project, dose response (AID 743048); format: functional;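 note: HEK293 cells carrying a WT1 promoter luciferase reporter driven by expressed Pax2; potency is for inhibition of Pax2 driven reporter signal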

| Compound | AC50 (Caspase-3 [1]) | IC50 (H9c2) | AC50 (Caspase-6) | EC50 [2] | AC50 (Caspase-9) | AC50 (Caspase-7) | IC50 [3] | IC50 [4] | IC50 [5] | IC50 [6] | IC50 (Caspase-3 [7]) | AC50 (Caspase-8) | AC50 [8] | AC50 [9] | AC50 [10] | AC50 [11] | AC50 [12] |
| --- | --- | --- | --- | --- | --- | --- | --- | --- | --- | --- | --- | --- | --- | --- | --- | --- | --- |
| O=C(OCc1nnc(-c2ccccc2)o1)c1ccc([N+](=O)[O-])s1 | 6.9 µM (active) | > 79 µM (inactive) | 3.66 µM (active) | 33.1 µM (inactive) | 18.4 µM (active) | 14.6 µM (active) | 24.2 µM (inactive) | 6.79 µM (active) | 5.56 µM (active) | 10.1 µM (active) | 14.3 µM (active) | 23.3 µM (active) | – | – | – | – | – |
| COc1cccc(C#Cc2ccc([C@@H]3[C@@H](C#N)N(C(=O)C4CCCCC4)[C@@H]3CO)cc2)c1 | – | – | – | – | – | – | – | – | – | – | – | – | 30.5 µM (active) | 57.3 µM (active) | 25.8 µM (active) | 69.6 µM (active) | 19.9 µM (active) |
